From patent US8716326B2, “Isoindolinone derivatives, preparation method thereof and a pharmaceutical composition comprising same” (Korea Research Institute of Chemical Technology, priority 2009, dated 2014)

System: Runx2
Assay: Runx2 activity, 6xOSE2-Luc luciferase reporter in transfected C2C12 cells
Format: cell-based, Mouse
Settings: 24 hrs; for fold induction at 2.5 µM / fold induction at 5 µM / fold induction at 10 µM / fold induction at 20 µM: Mus musculus, read-out: luciferase activity relative to control set as 1
Protocol: Mouse premyoblast cell (C2C12 cell) was transfected using receptor vector 6xOSE2-Luc in order to investigate the activity of the amide compound of the present invention on Runx2.
Specifically, the receptor vector 6xOSE2-Luc was prepared by inserting an artificial promoter linked by six tandem copies of the OSE2 (osteoblast specific element-2) into vector pGL3 (Promega; Madison, Wis., U.S.A.), and then, cloned into the C2C12 cell to be transfected (Kim et al., Journal of Cellular Biochemistry, 91: 1239-1247, 2004). The OSE2 is the binding site of Runx2 in the promoter of osteocalcin which is a bone marker.
C2C12 cells (5,000 cells/well) were plated onto 96-well plates using 10% FBS (fetal bovine serum; Hyclone)-containing DMEM (Dulbecco's Modified Eagle's Medium), the medium was replaced with 5% FBS-containing DMEM after 24 hrs, and treated with each of the amide compounds obtained in Examples 1 to 94 at various concentrations of 2.5 μM, 5.0 μM, 10 μM, and 20 μM. As a control, dimethyl sulfoxide (DMSO) vehicle was applied to the cell in an amount same as that of the amide compound. After 24 hrs, the luciferase activity in the cell lysate was measured by using Dual-Luciferase Reporter Assay System (Promega). The luciferase activity of the amide compound of the present invention was calculated as a value relative to that observed for the control which was set as 1.

O=C(CCCCCN1Cc2cc(-c3ccccc3)ccc2C1=O)NO [Example 49, N-hydroxy-6-(1-oxo-5-phenylisoindolin-2-yl)hexanamide] was tested, and the fold induction at 2.5 µM (2.5 μM) was 4.8, the fold induction at 5 µM (5.0 μM) was 10.6 and the fold induction at 10 µM (10 μM) was 28.1. The fold induction at 20 µM (20 μM) was 26.5.

In the case of COc1ccc(-c2ccc3c(c2)CN(CCCCCC(=O)NO)C3=O)c(OC)c1 [Example 50, N-hydroxy-6-(5-(2,4-dimethoxyphenyl)-1-oxoisoindolin-2-yl)hexanamide], the fold induction at 2.5 µM (2.5 μM) is reported as 1.9, the fold induction at 5 µM (5.0 μM) is reported as 5 and the fold induction at 10 µM (10 μM) is reported as 22.1. For the same molecule, the fold induction at 20 µM (20 μM) was 42.7.

For COc1ccc(-c2ccc3c(c2)CN(CCCCCC(=O)NO)C3=O)cc1OC [Example 51, N-hydroxy-6-(5-(3,4-dimethoxyphenyl)-1-oxoisoindolin-2-yl)hexanamide], the fold induction at 2.5 µM (2.5 μM) was 1.2, the fold induction at 5 µM (5.0 μM) was 2.1 and the fold induction at 10 µM (10 μM) was 10.4. It also gave a fold induction at 20 µM (20 μM) of 26.4.

Work on Cc1cc(C)cc(-c2ccc3c(c2)CN(CCCCCC(=O)NO)C3=O)c1 [Example 52, N-hydroxy-6-(5-(3,5-dimethylphenyl)-1-oxoisoindolin-2-yl)hexanamide] yielded a fold induction at 2.5 µM (2.5 μM) of 2.4, a fold induction at 5 µM (5.0 μM) of 4.7 and a fold induction at 10 µM (10 μM) of 12.6. It also gave a fold induction at 20 µM (20 μM) of 20.4.

With O=C(CCCCCN1Cc2cc(-c3cc(F)cc(F)c3)ccc2C1=O)NO [Example 53, 6-(5-(3,5-difluorophenyl)-1-oxoisoindolin-2-yl)-N-hydroxyhexanamide] the fold induction at 2.5 µM (2.5 μM) was 1.7, the fold induction at 5 µM (5.0 μM) was 3 and the fold induction at 10 µM (10 μM) was 5.6. The fold induction at 20 µM (20 μM) was 13.3.

O=C(CCCCCN1Cc2cc(-c3cccnc3)ccc2C1=O)NO [Example 54, N-hydroxy-6-(1-oxo-5-(pyridin-3-yl)isoindolin-2-yl)hexanamide] showed a fold induction at 2.5 µM (2.5 μM) of 1.5, a fold induction at 5 µM (5.0 μM) of 2.9 and a fold induction at 10 µM (10 μM) of 8.9. The fold induction at 20 µM (20 μM) was 19.8.

O=C(CCCCCN1Cc2cc(-c3ccc(C(F)(F)F)cc3)ccc2C1=O)NO [Example 55, 6-(5-(4-(trifluoromethyl)phenyl)-1-oxoisoindolin-2-yl)-N-hydroxyhexanamide] showed a fold induction at 2.5 µM (2.5 μM) of 2.7, a fold induction at 5 µM (5.0 μM) of 3.7 and a fold induction at 10 µM (10 μM) of 5.5. For the same molecule, the fold induction at 20 µM (20 μM) was 13.3.

Molecule Nc1ccccc1NC(=O)c1ccc(CN2Cc3cc(Br)ccc3C2=O)cc1 [Example 56, N-(2-aminophenyl)-4-((5-bromo-1-oxoisoindolin-2-yl)methyl)benzamide] has a fold induction at 2.5 µM (2.5 μM) of 1.1, a fold induction at 5 µM (5.0 μM) of 1.1 and a fold induction at 10 µM (10 μM) of 1.1. It also gave a fold induction at 20 µM (20 μM) of 1.1.

For Nc1ccccc1NC(=O)c1ccc(CN2Cc3cc(-c4ccccc4)ccc3C2=O)cc1 [Example 57, N-(2-aminophenyl)-4-((1-oxo-5-phenylisoindolin-2-yl)methyl)benzamide], the fold induction at 2.5 µM (2.5 μM) was 7.3, the fold induction at 5 µM (5.0 μM) was 8.9 and the fold induction at 10 µM (10 μM) was 10.9. It also gave a fold induction at 20 µM (20 μM) of 10.7.

Nc1ccccc1NC(=O)c1ccc(CN2Cc3cc(-c4cncnc4)ccc3C2=O)cc1 [Example 58, N-(2-aminophenyl)-4-((1-oxo-5-(pyrimidin-5-yl)isoindolin-2-yl)methyl)benzamide] was tested, and the fold induction at 2.5 µM (2.5 μM) was 11.7, the fold induction at 5 µM (5.0 μM) was 17.1 and the fold induction at 10 µM (10 μM) was 21.6. The fold induction at 20 µM (20 μM) was 21.6.

In the case of Nc1ccccc1NC(=O)c1ccc(CN2Cc3cc(-c4ccc(C(F)(F)F)cc4)ccc3C2=O)cc1 [Example 59, N-(2-aminophenyl)-4-((5-(4-(trifluoromethyl)phenyl)-1-oxoisoindolin-2-yl)methyl)benzamide], the fold induction at 2.5 µM (2.5 μM) is reported as 3.3, the fold induction at 5 µM (5.0 μM) is reported as 4.5 and the fold induction at 10 µM (10 μM) is reported as 4.1. It also gave a fold induction at 20 µM (20 μM) of 3.8.

Nc1ccccc1NC(=O)c1ccc(CN2Cc3cc(-c4cc(F)cc(F)c4)ccc3C2=O)cc1 [Example 60, N-(2-aminophenyl)-4-((5-(3,5-difluorophenyl)-1-oxoisoindolin-2-yl)methyl)benzamide] showed a fold induction at 2.5 µM (2.5 μM) of 5.4, a fold induction at 5 µM (5.0 μM) of 5.9 and a fold induction at 10 µM (10 μM) of 7. It also gave a fold induction at 20 µM (20 μM) of 8.6.

Nc1ccccc1NC(=O)c1ccc(CN2Cc3cc(-c4cccnc4)ccc3C2=O)cc1 [Example 61, N-(2-aminophenyl)-4-((1-oxo-5-(pyridin-3-yl)isoindolin-2-yl)methyl)benzamide] was tested, and the fold induction at 2.5 µM (2.5 μM) was 9.6, the fold induction at 5 µM (5.0 μM) was 10.6 and the fold induction at 10 µM (10 μM) was 14.2. For the same molecule, the fold induction at 20 µM (20 μM) was 15.6.

Work on Cc1cc(C)cc(-c2ccc3c(c2)CN(Cc2ccc(C(=O)Nc4ccccc4N)cc2)C3=O)c1 [Example 62, N-(2-aminophenyl)-4-((5-(3,5-dimethylphenyl)-1-oxoisoindolin-2-yl)methyl)benzamide] yielded a fold induction at 2.5 µM (2.5 μM) of 4.6, a fold induction at 5 µM (5.0 μM) of 5.8 and a fold induction at 10 µM (10 μM) of 5.5. The fold induction at 20 µM (20 μM) was 6.6.

In the case of COc1ccc(-c2ccc3c(c2)CN(Cc2ccc(C(=O)Nc4ccccc4N)cc2)C3=O)cc1 [Example 63], the “luciferase activity relative to control set as 1” value (2.5 μM) is reported as 8.3 fold, the “luciferase activity relative to control set as 1” value (5.0 μM) is reported as 10.3 fold and the “luciferase activity relative to control set as 1” value (10 μM) is reported as 13.1 fold. The “luciferase activity relative to control set as 1” value (20 μM) was 14.2 fold.

COc1ccc(-c2ccc3c(c2)CN(Cc2ccc(C(=O)Nc4ccccc4N)cc2)C3=O)cc1OC [Example 64, N-(2-aminophenyl)-4-((5-(3,4-dimethoxyphenyl)-1-oxoisoindolin-2-yl)methyl)benzamide] gave a fold induction at 2.5 µM (2.5 μM) of 11.3, a fold induction at 5 µM (5.0 μM) of 10.7 and a fold induction at 10 µM (10 μM) of 10.1. It also gave a fold induction at 20 µM (20 μM) of 9.5.

With N#Cc1ccc(-c2ccc3c(c2)CN(Cc2ccc(C(=O)Nc4ccccc4N)cc2)C3=O)cc1 [Example 65, N-(2-aminophenyl)-4-[5-(4-cyanophenyl)-1-oxo-2,3-dihydro-1H-isoindol-2-yl]methylbenzamide] the fold induction at 2.5 µM (2.5 μM) was 12.9, the fold induction at 5 µM (5.0 μM) was 15.7 and the fold induction at 10 µM (10 μM) was 13.5. For the same molecule, the fold induction at 20 µM (20 μM) was 11.4.

Molecule Nc1ccccc1NC(=O)c1ccc(CN2Cc3cc(-c4ccc5c(c4)OCO5)ccc3C2=O)cc1 [Example 66, N-(2-aminophenyl)-4-((5-(benzo[d][1,3]dioxol-6-yl)-1-oxoisoindolin-2-yl)methyl)benzamide] has a fold induction at 2.5 µM (2.5 μM) of 14.2, a fold induction at 5 µM (5.0 μM) of 9.4 and a fold induction at 10 µM (10 μM) of 7.2. It also gave a fold induction at 20 µM (20 μM) of 7.2.

Molecule Nc1ccccc1NC(=O)c1ccc(CN2Cc3cc(-c4ccc5ccccc5c4)ccc3C2=O)cc1 [Example 67, N-(2-aminophenyl)-4-((5-(naphthalen-2-yl)-1-oxoisoindolin-2-yl)methyl)benzamide] has a fold induction at 2.5 µM (2.5 μM) of 1.4, a fold induction at 5 µM (5.0 μM) of 2 and a fold induction at 10 µM (10 μM) of 2.9. The fold induction at 20 µM (20 μM) was 6.1.

Molecule Cc1c(Br)cccc1C(=O)NCc1ccc(C(=O)Nc2ccccc2N)cc1 [Example 68, N-(2-aminophenyl)-4-((3-bromo-2-methylbenzamido)methyl)benzamide] has a fold induction at 2.5 µM (2.5 μM) of 9, a fold induction at 5 µM (5.0 μM) of 10.1 and a fold induction at 10 µM (10 μM) of 12.8. The fold induction at 20 µM (20 μM) was 15.6.

With Cc1c(C(=O)NCc2ccc(C(=O)Nc3ccccc3N)cc2)cccc1-c1ccccc1 [Example 69, N-(2-aminophenyl)-4-((2-methyl-3-phenyl-benzamido)methyl)benzamide] the fold induction at 2.5 µM (2.5 μM) was 13.5, the fold induction at 5 µM (5.0 μM) was 22 and the fold induction at 10 µM (10 μM) was 29.2. For the same molecule, the fold induction at 20 µM (20 μM) was 30.6.

Cc1c(C(=O)NCc2ccc(C(=O)Nc3ccccc3N)cc2)cccc1-c1cncnc1 [Example 70, N-(2-aminophenyl)-4-((2-methyl-3-(5-pyrimidinyl)benzamido)methyl)benzamide] gave a fold induction at 2.5 µM (2.5 μM) of 8.9, a fold induction at 5 µM (5.0 μM) of 20.6 and a fold induction at 10 µM (10 μM) of 30.1. It also gave a fold induction at 20 µM (20 μM) of 40.2.

Cc1c(C(=O)NCc2ccc(C(=O)Nc3ccccc3N)cc2)cccc1-c1cccnc1 [Example 71, N-(2-aminophenyl)-4-((2-methyl-3-(3-pyridinyl)benzamido)methyl)benzamide] showed a fold induction at 2.5 µM (2.5 μM) of 18.7, a fold induction at 5 µM (5.0 μM) of 34.8 and a fold induction at 10 µM (10 μM) of 36.5. The fold induction at 20 µM (20 μM) was 32.7.

For Cc1c(C(=O)NCc2ccc(C(=O)Nc3ccccc3N)cc2)cccc1-c1cccc(N)c1 [Example 72, N-(2-aminophenyl)-4-((2-methyl-3-(3-aminophenyl)benzmido)methyl)benzamide], the “luciferase activity relative to control set as 1” value (2.5 μM) was 17.6 fold, the “luciferase activity relative to control set as 1” value (5.0 μM) was 29.8 fold and the “luciferase activity relative to control set as 1” value (10 μM) was 29.6 fold. The “luciferase activity relative to control set as 1” value (20 μM) was 31.4 fold.

For COc1cc(C(=O)NCc2ccc(C(=O)Nc3ccccc3N)cc2)c(C)c(Br)c1OC [Example 73, N-(2-aminophenyl)-4-((3-bromo-4,5-dimethoxy-2-methylbenzamido)methyl)benzamide], the fold induction at 2.5 µM (2.5 μM) was 24.2, the fold induction at 5 µM (5.0 μM) was 32.3 and the fold induction at 10 µM (10 μM) was 30.8. For the same molecule, the fold induction at 20 µM (20 μM) was 25.9.

Molecule COc1cc(C(=O)NCc2ccc(C(=O)Nc3ccccc3N)cc2)c(C)c(-c2ccccc2)c1OC [Example 74, N-(2-aminophenyl)-4-((2-methyl-3-phenyl-4,5-dimethoxy-benzamido)methyl)benzamide] has a fold induction at 2.5 µM (2.5 μM) of 25.1, a fold induction at 5 µM (5.0 μM) of 31.1 and a fold induction at 10 µM (10 μM) of 38.5. For the same molecule, the fold induction at 20 µM (20 μM) was 38.9.
